Measured values taken from patent publication US9980928B2, “Hydroxy aliphatic substituted phenyl aminoalkyl ether derivatives” (PROUS INSTITUTE FOR BIOMEDICAL RESEARCH, S.A., priority 2012, dated 2018).
Entries after “also recorded” stand apart in the source; their conditions may differ.

What was measured:
serotonin transporter = molecular target: T1, serotonin transporter (Homo sapiens, UniProt P31645); assay: Serotonin transporter binding radioligand inhibition ([3H]-imipramine); details: concentration 5 μM
T1 construct: expressed in transfected cells; host or cells: CHO cells
Text: The serotonin transporter removes serotonin from the synaptic deft. The serotonin transporter terminates the effects of […], enabling its reuse by the presynaptic neuron.

mice [1] = assay: Forced swimming test in mice; format: in vivo
Description: The antidepressant activity was determined using the forced swimming test described in Porsolt, R.-D. et al. Arch Int Pharmacodyn 1977, 229(2): 327-36.
Reduction in the duration of immobility by 50% or more relative to the control group indicates possible antidepressant activity. Also, one-way ANOVA followed by Dunnett's test was applied to compare the test compound-treated and vehicle control groups. Significance was considered to be P<0.05.

mice [2] = assay: Tail suspension assay in mice; format: in vivo; details: 90 mg/kg, route not given
Description: Another method of measuring antidepressant activity that may be used to evaluate the compounds of the present invention is the tail suspension test in mice described in Vogel, H. G. and Vogel, W. H. (Eds.) Drug Discovery and Evaluation, Springer-Verlag Berlin Heidelberg, 1997) pp. 304-3059). The mouse tail suspension assay was conducted 60 minutes after dosing. The duration of immobility was recorded for a period of 5 minutes after tail suspension was initiated, and reduction in the duration of immobility by ≥50% relative to the control group indicated antidepressant activity. Statistical analysis was also performed by using one-way ANOVA followed by Dunnett's test to compare the data of test compound-treated and vehicle control groups. Significance was considered to be P<0.05.

mice [3] = assay: Passive avoidance test; format: in vivo; details: 30 mg/kg i.p., test phase 24 hours later
Text: The passive avoidance task is a fear-aggravated test used to evaluate learning and memory in rodent models of CNS disorders. In this test, subjects learn to avoid an environment in which an aversive stimulus (such as a footshock) was previously delivered.
The animals can freely explore the light and dark compartments of the chamber and a mild footshock is delivered in one side of the compartment. Animals eventually learn to associate certain properties of the chamber with the footshock. The latency to pass the gate in order to avoid the stimulus is used as an indicator of learning and memory. The passive avoidance task is useful for evaluating the effect of novel chemical entities on learning and memory, as well as studying the mechanisms involved in cognition (Cappon, G. D. Eur J Pharmacol. 2008 579(1-3): 225-8).
A passive avoidance test with Example 2 administered i.p. at 30 mg/kg was conducted to assess the formation of recent and long-term memory (consolidation) using a negative reinforcement (0.6 mA footshock; 2 s).

[4] = test system: J20 mouse model and wild-type mice; assay: Morris water maze test in old wild-type and J20 mice; format: in vivo; details: 30 mg/kg i.p.
Text: Familial Alzheimer's disease (AD) is associated with mutations that lead to the production of the β-amyloid 42 (Aβ42) peptide, a constituent of the characteristic amyloid plaques diagnostic of AD. These mutations occur at the proteolytic cleavage sites in the gene encoding the amyloid precursor protein (APP), and in the genes for presenilins 1 and 2 (PSEN1 and PSEN2), enzymes involved in APP cleavage. […] The J20 mouse model is a suitable experimental animal model for testing the activity of drugs on cognitive performance because these mice show robust impairment in spatial learning and spatial reference memory (Karl, T. et al. Behav Brain Res 2012, 228(2): 392-97; Garcia-Barroso, C. et al. Neuropharmacology 2013, 64: 114-23). The effects of Example 2 on spatial memory and learning in the J20 mouse model using the Morris water maze test (Vorhees, Ch. V. and Williams, M. T. Nat Protoc 2006, 1(2): 848-58) were investigated in our laboratory.
The Morris water maze test was applied to 45 old male mice. Twenty wild-type and 25 J20 mice (n=10-11 for each group of treatment/genotype; 10-14 months of age) were treated with vehicle or Example 2 at 30 mg/kg i.p. Percent times in quadrants, escape latencies, distance to goal and other parameters were recorded and compared between groups to assess the compound's activity.

p-Akt = assay: Western blot of p-Akt in mouse brain after i.p. administration; format: in vivo, mice; details: 30 mg/kg i.p., hippocampus, 1 hour after administration; hydrochloride
Description: Acute biochemical neuronal changes in neurotrophin and synaptic plasticity signaling after the administration of the compounds to be tested may be studied by Western blot assessment of ERK, Akt, phospholipase C (PLC), Trk-B, […] and CAMK II phosphorylation assays in the hippocampus, striatum and cortex at 1 hour post-administration.
Two groups of animals were used: C57BL control mice and mice treated by i.p. administration of a dose of 30 mg/kg of the compound to be tested diluted in saline solution or control saline (n=6 per group).
Animals were sacrificed by cervical dislocation at the corresponding time and different brain regions were dissected (frontal cortex, striatum, hippocampus, cerebellum) after […] of having administered the compounds. […] The supernatants were collected and the protein concentration was measured using the Dc protein assay kit (Bio-Rad, Hercules, Calif., USA) read in a 96-well plate. […]
After primary antibody incubation, membranes were washed with TBS-T and incubated for 1 hour at room temperature with the appropriate horseradish peroxidase-conjugated secondary antibody (1:2000; Promega, Madison, Wis., USA), and the reaction was finally visualized with the Western Blotting Luminol Reagent (Santa Cruz Biotechnology, Santa Cruz, Calif., USA). Western blot replicates were scanned and quantified using a computer-assisted densitometric analysis.

T1 sequence (P31645 whole entry): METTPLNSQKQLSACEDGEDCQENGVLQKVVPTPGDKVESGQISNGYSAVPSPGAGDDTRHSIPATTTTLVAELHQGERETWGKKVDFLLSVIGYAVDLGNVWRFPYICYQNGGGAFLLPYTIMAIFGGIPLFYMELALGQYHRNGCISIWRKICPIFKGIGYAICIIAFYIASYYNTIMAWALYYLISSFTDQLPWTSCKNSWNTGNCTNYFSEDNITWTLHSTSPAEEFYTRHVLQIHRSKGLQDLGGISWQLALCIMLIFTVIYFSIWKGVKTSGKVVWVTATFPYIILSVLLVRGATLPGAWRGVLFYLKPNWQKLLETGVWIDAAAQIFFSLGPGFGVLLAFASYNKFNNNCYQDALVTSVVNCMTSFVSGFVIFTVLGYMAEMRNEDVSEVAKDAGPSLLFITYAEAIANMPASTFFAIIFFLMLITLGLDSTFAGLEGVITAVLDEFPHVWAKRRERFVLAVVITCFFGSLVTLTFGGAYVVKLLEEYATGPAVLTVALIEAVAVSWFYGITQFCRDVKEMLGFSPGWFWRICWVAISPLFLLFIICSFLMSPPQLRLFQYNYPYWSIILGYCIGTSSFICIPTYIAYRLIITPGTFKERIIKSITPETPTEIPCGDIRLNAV

CNCCC(Oc1ccc(CCO)cc1)c1ccccc1.Cl (single isomer, unassigned) [Example 2, 2-[4-[3-(Methylamino)-1-phenylpropoxy]phenyl]ethanol hydrochloride]
inhibition at 5 µM (serotonin transporter): 82%
antidepressant activity (duration of immobility) (mice [1]; 30 mg/kg intraperitoneal, 60 minutes post-dosing): significant antidepressant activity
antidepressant activity (duration of immobility) (mice [1]; 90 mg/kg p.o.): significant activity
antidepressant effect (duration of immobility) (mice [2]): significant activity
time on the platform vs saline-treated group (recent memory formation) (mice [3]): significantly longer time on the platform
visuospatial memory and learning ([4]; J20 mice): positive effect in some sessions
visuospatial memory and learning ([4]; old wild type mice): increase in visuospatial memory and learning
p-Akt levels (Akt phosphorylation) (p-Akt): positive significant increase; also recorded: increase in Akt phosphorylation
